Test: Body weight assessment in an in vivo model of systemic lupus erythematosus
Settings: mycophenolate 60 mg/kg PO once daily, 9 weeks, MRL/FAS^lpr mice, FIG. 1

With `COc1c(C)c2c(c(O)c1C/C=C(\C)CCC(=O)O)C(=O)OC2` [Mycophenolate, mycophenolate] as the compound, how does the “changes in body weight” value read?
Its value is “no statistically significant changes in body weight”.
